This assay concerns the target T1, hexokinase II (HKII) (Homo sapiens, UniProt P52789).
T1 construct: gene HK2; recombinant HKII expressed in E. coli, first 16 aa from the N-terminal removed
T1 sequence (P52789 17-917): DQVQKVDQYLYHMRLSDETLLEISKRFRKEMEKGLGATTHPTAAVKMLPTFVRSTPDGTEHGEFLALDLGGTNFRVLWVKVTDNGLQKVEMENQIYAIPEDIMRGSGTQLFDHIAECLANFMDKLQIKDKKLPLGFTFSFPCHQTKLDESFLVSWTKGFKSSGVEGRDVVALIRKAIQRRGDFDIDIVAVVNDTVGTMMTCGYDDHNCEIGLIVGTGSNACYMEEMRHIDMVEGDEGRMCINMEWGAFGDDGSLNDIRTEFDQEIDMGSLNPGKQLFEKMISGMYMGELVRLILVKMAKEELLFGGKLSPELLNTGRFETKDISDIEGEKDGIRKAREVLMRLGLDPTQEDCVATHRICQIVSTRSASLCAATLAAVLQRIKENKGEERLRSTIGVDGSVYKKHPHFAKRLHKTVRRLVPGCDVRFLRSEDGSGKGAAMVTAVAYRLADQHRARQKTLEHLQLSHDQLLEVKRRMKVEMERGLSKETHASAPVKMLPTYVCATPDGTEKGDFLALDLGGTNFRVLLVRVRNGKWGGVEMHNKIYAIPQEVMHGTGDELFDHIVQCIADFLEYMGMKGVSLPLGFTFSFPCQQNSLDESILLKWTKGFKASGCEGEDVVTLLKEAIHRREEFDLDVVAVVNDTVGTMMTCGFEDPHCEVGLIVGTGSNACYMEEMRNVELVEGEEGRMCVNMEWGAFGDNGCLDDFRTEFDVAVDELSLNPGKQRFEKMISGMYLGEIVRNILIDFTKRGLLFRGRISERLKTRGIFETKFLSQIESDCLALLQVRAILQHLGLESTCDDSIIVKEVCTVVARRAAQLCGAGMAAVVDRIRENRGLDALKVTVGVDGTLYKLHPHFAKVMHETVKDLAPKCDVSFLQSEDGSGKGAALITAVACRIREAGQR
Put plainly: […] NMR CPMG transverse relaxation titration. In kind it is binding. Conditions: read-out: Kα [mol m^-3].

Data on one molecule can be found in PMC11504489, “Potent Biological Activity of Fluorinated Derivatives of 2-Deoxy-D-Glucose in a Glioblastoma Model” (Biomedicines, 2024).

`OC[C@H]1OC(O)C(F)(F)[C@@H](O)[C@@H]1O` (mixture of isomers) [2,2-diFG, 2-deoxy-2,2-difluoro-D-glucopyranose]: the Kd worked out at 960 ± 200 µM.
